Assays:
[1] = system: Pythium spinosum; assay: Inhibition test of mycelial growth against rice seedling blight (Pythium spinosum); type: cell-based; details: Globisporangium spinosum, 48 h, PDA plate, 2 days, 20° C., read-out: Inhibition Rate of Mycelial Growth against Pythium spinosum (%)
Procedure: Inhibition Test of Mycelial Growth Against Rice Seedling Blight (Pythium spinosum)
(§1) The strain to use for a test was precultured on a PSA plate for two days at 20° C. Then, the peripheral portion of the grown mycelia was cut out with a cork borer (4 mm in diameter) to put on PDA plate which was prepared to contain an active ingredient at a predetermined concentration by diluting. After culturing for two days at 20° C., a diameter of the mycelial colony was measured to obtain an inhibition rate of mycelial growth.
(§2) In addition, a theoretical value of the inhibition rate was calculated using Colby's formula and listed in parentheses of Table 1.

[2] = system: Pythium graminicola; assay: Inhibition test of mycelial growth against turf Pythium blight (Pythium graminicola); type: cell-based
Procedure: as §1, §2
Inhibition Test of Mycelial Growth Against Turf Pythium Blight (Pythium graminicola)
The inhibition rate of mycelial growth was obtained by measuring mycelial growth in the same manner as Test Example 1. In addition, the mean mycelial growth of non-treated group was 46.5 mm.

Q: Which results are given for `Cc1ccc(-c2c(Cl)nc(C#N)n2S(=O)(=O)N(C)C)cc1` [Cyazofamid, 4-chloro-2-cyano-1-dimethylsulfamoyl-5-(4-methylphenyl)imidazole]?
A: inhibition at 1 ppm ([1]; Cyazofamid 1.0 ppm alone (polyoxin 0 ppm)): 68%; inhibition at 10 ppm ([1]; Cyazofamid 10.0 ppm alone (polyoxin 0 ppm)): 54%; Inhibition Rate of Mycelial Growth (%) ([2]; Cyazofamid 1 ppm alone (agent 0 ppm)): 48%; Inhibition Rate of Mycelial Growth (%) ([2]; Cyazofamid 10 ppm alone (agent 0 ppm)): 47%; Inhibition Rate of Mycelial Growth (%) ([2]; Cyazofamid 100 ppm alone (agent 0 ppm)): 68%
